Laboratory results reported in ChEMBL document CHEMBL1201862, “PubChem BioAssay data set” (2004).
Active and inactive are the calls of the source.

Columns and labels:
Leucine aminopeptidase = target: T1, Leucine aminopeptidase (Plasmodium falciparum 3D7, UniProt Q8IL11); assay: P. falciparum M17LAP inhibitors, primary screen, biochemical, fluorogenic H-Leu-NHMec substrate, 1536-well (AID 1619); format: functional
T1 sequence (Q8IL11 whole entry): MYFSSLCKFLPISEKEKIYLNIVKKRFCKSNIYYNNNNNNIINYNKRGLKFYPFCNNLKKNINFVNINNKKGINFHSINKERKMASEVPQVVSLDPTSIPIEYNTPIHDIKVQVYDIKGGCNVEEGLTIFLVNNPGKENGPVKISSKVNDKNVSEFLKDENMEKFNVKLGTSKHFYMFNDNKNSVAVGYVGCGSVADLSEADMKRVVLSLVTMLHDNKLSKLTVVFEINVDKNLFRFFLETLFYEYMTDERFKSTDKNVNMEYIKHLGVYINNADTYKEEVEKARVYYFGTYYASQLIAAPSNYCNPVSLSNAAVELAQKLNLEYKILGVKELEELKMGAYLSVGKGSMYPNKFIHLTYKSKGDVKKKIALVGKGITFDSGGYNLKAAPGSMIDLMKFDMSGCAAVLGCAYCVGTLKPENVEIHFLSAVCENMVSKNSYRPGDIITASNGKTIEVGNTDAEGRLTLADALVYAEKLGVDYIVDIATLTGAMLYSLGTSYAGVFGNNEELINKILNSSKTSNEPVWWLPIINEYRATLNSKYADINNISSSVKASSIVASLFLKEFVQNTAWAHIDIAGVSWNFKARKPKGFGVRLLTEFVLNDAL

[1] = target: G-protein coupled receptor 55 (Homo sapiens, UniProt Q9Y2T6); assay: inhibition of LPI-stimulated GPR55 beta-arrestin translocation – imaging, U2OS, beta-arrestin-GFP, LPI agonist, primary screen (AID 2013); format: functional;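 also: antagonist potency measured as reduced agonist-driven arrestin aggregation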
Chain of G-protein coupled receptor 55 (Q9Y2T6 whole entry): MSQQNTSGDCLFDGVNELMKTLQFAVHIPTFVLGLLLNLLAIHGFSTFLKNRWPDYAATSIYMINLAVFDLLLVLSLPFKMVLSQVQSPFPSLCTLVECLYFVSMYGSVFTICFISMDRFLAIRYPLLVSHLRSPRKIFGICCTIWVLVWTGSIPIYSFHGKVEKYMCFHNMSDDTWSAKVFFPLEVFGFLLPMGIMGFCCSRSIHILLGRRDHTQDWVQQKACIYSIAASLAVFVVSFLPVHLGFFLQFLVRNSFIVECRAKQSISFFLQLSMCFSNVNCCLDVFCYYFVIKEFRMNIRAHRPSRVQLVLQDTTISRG

[2] = target: DNA dC->dU-editing enzyme APOBEC-3A (Homo sapiens, UniProt P31941); assay: A3A deaminase inhibition for selectivity – biochemical, dose response (AID 504722); format: functional
Chain of DNA dC->dU-editing enzyme APOBEC-3A (P31941 whole entry): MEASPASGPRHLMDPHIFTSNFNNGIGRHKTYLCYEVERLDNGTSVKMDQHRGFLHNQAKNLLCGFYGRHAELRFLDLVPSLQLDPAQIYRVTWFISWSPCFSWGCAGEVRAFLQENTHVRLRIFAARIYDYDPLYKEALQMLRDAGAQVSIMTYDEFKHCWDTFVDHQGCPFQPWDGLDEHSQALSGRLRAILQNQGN

[3] = target: DNA dC->dU-editing enzyme APOBEC-3G (Homo sapiens, UniProt Q9HC16); assay: Dose Response confirmation of small molecule APOBEC3G DNA Deaminase Inhibitors via a fluorescence-based single-stranded DNA deaminase assay. [Related pubchem assays (depositor defined):AID493012, AID493028]; format: functional
Chain of DNA dC->dU-editing enzyme APOBEC-3G (Q9HC16 whole entry): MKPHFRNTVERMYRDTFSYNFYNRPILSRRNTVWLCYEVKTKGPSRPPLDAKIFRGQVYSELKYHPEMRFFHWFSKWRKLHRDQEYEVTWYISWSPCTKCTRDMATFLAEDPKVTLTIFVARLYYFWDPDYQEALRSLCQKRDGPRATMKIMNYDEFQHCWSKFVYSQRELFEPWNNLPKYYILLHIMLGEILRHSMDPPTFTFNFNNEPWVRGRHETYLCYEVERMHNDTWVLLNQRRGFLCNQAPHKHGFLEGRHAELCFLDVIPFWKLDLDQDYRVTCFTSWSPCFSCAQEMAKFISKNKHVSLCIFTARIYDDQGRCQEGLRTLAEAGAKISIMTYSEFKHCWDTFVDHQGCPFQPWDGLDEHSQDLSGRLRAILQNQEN

[4] = target: FAD-linked sulfhydryl oxidase ALR (Homo sapiens, UniProt P55789); assay: ALR-catalysed DTT oxidation blockers – biochemical, H2O2 detection, luminescence, cherry-pick, dose response (AID 493248)
Chain of FAD-linked sulfhydryl oxidase ALR (P55789 whole entry): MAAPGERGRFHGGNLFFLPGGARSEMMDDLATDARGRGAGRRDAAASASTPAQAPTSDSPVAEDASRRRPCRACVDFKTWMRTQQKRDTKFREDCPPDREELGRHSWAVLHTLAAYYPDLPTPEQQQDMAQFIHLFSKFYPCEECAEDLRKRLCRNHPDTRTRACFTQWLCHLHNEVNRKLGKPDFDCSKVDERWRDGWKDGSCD

[5] = viability of PTEN-deleted HCT116 cells – cell-based, HCT116 PTEN knockout, dose response (AID 1047); format: functional;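 also: HCT116 colon tumor cells with PTEN knocked out; cells exposed to compound for 60 hours before readout; potency for loss of cell viability measured by luminescence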
[6] = viability of HCT116 lacking mutant beta-catenin – cell-based, human colon tumor, dose response (AID 1045); format: functional;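 also: HCT116 colon tumor cells with beta catenin knocked out; cells exposed to compound for 60 hours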
INS1 = assay: INS-1E survival protection against cytokine death – cell-based, luminescence, retest, dose response (AID 449756); format: functional; conditions: Rattus norvegicus;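 also: cell death triggered by IL-1 beta plus TNF-alpha plus IFN-gamma mixture; protective hits raise ATP signal compared with cytokine alone wells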
[7] = target: T2, Rac GTPase-activating protein 1 (Homo sapiens, UniProt Q9H0H5); assay: blockers of MgcRacGAP-driven Rac1 GTP hydrolysis – biochemical, ADP Hunter fluorescence, primary and confirmatory, confirmation (AID 624330); format: functional
T2 sequence (Q9H0H5 whole entry): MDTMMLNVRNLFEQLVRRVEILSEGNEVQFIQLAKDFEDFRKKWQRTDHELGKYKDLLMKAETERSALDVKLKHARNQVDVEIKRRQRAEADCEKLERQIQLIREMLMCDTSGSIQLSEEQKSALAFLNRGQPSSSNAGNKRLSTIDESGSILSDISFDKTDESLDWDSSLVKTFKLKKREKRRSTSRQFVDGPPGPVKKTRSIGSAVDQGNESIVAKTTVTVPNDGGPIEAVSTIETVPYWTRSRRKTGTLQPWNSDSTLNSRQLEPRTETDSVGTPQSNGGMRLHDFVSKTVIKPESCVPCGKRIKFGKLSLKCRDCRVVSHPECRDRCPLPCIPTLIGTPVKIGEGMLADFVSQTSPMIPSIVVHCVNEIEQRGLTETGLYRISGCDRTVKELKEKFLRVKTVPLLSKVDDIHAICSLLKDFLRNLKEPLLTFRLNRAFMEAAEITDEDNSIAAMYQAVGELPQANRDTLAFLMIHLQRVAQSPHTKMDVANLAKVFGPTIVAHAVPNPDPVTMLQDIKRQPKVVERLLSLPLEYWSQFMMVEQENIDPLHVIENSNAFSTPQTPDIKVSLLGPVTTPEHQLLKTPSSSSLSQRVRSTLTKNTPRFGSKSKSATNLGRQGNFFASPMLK

[8] = Luminescence Cell-Based Dose Response to Identify Activators of 5'UTR Stem-Loop Driven Prion Protein mRNA Translation in H4-C Neuroglioblastoma Cells. [Related pubchem assays: 1829 (Project Summary), 1814 (Primary HTS)]; format: functional
[9] = Luminescence Cell-Based Dose Response HTS to Identify Activators of Luciferase Translation or Activity in H4 […] Cells. [Related pubchem assays: 1829 (Project Summary), 1814 (Primary HTS)]; format: functional
H4 = assay: Luminescence Cell-Based Dose Response HTS to Identify Activators of 5'UTR Stem-Loop Driven Prion Protein mRNA Translation in H4 Neuroglioblastoma Cells. [Related pubchem assays: 1829 (Project Summary), 1814 (Primary HTS)]; format: functional; conditions: Homo sapiens
[10] = Luminescence Cell-Based Dose Response to Identify Activators of Luciferase Translation or Activity in H4-C Neuroglioblastoma Cells. [Related pubchem assays: 1829 (Project Summary), 1814 (Primary HTS)]; format: functional
[11] = Luminescence Cell-Based Dose Confirmation to Identify Activators of 5'UTR Stem-Loop Driven Alpha-Synuclein mRNA Translation in H4 Neuroglioblastoma Cells. [Related pubchem assays: 1829 (Project Summary), 1814 (Primary HTS)]; format: functional
[12] = luciferase reporter signal suppression in cells – H4 neuroglioma cells, luminescence, dose response (AID 1990); format: functional, cell-based
[13] = Luminescence Cell-Based Dose Response HTS to Identify Inhibitors of 5'UTR Stem-Loop Driven Prion Protein mRNA Translation in H4 Neuroglioblastoma Cells. [Related pubchem assays: 1827 (Project Summary), 1813 (Primary HTS)]; format: functional
[14] = alpha-synuclein stem-loop luciferase translation blockers – H4 neuroglioma cells, luminescence, confirmation (AID 1988); format: functional, cell-based
[15] = target: T3, Histone-lysine N-methyltransferase NSD2 (Homo sapiens, UniProt O96028); format: biochemical
T3 sequence (O96028 whole entry): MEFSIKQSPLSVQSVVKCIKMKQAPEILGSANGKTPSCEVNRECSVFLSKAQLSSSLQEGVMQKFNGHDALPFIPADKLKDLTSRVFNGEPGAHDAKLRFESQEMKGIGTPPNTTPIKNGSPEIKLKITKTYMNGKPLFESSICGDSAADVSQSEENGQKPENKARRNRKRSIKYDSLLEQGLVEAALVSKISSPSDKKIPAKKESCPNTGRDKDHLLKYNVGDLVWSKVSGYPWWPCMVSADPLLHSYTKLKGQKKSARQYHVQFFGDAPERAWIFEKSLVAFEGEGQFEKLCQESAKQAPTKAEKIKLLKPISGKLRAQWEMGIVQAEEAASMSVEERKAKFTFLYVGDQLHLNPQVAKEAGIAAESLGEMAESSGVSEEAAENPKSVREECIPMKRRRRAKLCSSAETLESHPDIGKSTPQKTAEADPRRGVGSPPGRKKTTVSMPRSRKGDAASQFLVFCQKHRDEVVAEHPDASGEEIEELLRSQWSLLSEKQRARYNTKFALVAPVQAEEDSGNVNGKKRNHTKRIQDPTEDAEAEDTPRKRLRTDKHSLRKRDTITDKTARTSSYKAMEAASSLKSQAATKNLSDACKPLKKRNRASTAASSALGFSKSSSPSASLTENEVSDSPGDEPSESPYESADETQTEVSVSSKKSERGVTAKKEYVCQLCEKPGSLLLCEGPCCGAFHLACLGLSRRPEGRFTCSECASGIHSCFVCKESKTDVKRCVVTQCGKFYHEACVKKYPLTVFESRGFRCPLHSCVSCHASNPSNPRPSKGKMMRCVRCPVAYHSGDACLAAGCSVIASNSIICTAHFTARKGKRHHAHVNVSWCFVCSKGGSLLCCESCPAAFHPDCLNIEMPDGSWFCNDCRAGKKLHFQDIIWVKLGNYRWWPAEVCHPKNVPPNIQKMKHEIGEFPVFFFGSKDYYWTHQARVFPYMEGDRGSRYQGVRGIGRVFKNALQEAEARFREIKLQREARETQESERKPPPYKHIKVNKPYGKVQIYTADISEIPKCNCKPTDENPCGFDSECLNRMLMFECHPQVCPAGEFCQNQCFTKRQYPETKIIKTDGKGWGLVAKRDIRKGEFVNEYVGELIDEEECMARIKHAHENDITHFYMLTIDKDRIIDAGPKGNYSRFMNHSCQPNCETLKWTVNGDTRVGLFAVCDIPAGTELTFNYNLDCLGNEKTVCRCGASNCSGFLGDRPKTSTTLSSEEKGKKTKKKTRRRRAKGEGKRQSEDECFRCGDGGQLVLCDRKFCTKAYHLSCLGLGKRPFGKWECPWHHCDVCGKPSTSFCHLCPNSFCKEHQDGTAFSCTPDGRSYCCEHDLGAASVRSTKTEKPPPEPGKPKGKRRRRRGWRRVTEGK

Paired box protein Pax-8 = Paired box protein Pax-8 (Homo sapiens, UniProt Q06710); assay: PAX8 transcriptional activity inhibition in RMG-I – RMG-I cells, luciferase, cherry-pick, dose response (AID 687027); format: functional, cell-based;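 also: luciferase reporter driven by Pax8 target thyroperoxidase promoter measured by SteadyGlo luminescence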
Chain of Paired box protein Pax-8 (Q06710 whole entry): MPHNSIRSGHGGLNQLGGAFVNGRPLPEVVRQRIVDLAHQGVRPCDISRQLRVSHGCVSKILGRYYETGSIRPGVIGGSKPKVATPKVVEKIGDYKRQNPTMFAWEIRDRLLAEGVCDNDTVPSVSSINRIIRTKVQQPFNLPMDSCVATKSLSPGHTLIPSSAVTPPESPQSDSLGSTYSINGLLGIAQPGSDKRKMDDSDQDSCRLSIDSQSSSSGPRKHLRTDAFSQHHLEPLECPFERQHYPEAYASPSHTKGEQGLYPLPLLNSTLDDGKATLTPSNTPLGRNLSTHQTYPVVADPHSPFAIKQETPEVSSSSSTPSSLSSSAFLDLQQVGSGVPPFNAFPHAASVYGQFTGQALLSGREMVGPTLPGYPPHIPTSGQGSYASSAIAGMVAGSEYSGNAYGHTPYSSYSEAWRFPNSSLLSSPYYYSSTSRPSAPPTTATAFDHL

[16] = OVCAR-3 cell viability loss – plate reader, dry powder samples, PAX8 inhibitor project, dose response (AID 743044); format: functional, cell-based
[17] = IGROV1 cell killing – plate reader, dry powder samples, PAX8 inhibitor project, dose response (AID 743043); format: functional, cell-based; conditions: IGROV-1
[18] = OVCAR8 cell viability loss – plate reader, dry powder samples, PAX8 project, dose response (AID 743197); format: functional, cell-based; conditions: OVCAR-8
[19] = Luminescence Cell-Based Dose Confirmation HTS to Identify Activators of 5'UTR Stem-Loop Driven Alpha-Synuclein mRNA Translation in H4 Neuroglioblastoma Cells. [Related pubchem assays: 1829 (Project Summary), 1814 (Primary HTS)]; format: functional

SMILES: CCc1nnc(NS(=O)(=O)c2ccc(NC(=O)/C=C/c3ccc(OC)cc3OC)cc2)s1
- IC50 (Leucine aminopeptidase): 7.96 µM (active)
- IC50 [1]: 1.44 µM (active)

SMILES: Sc1nnc(C2CCCCC2)n1/N=C/c1ccccn1
- IC50 [2]: > 100 µM (inactive)
- IC50 [3]: 2.23 µM (active)
- AC50 [4]: 1.04 µM (active)

SMILES: Cc1cc(Nc2cccc(F)c2)nc(NCc2ccccc2)n1
- EC50 [5]: 11.1 µM (active)
- EC50 [6]: 10.4 µM (active)
- AC50 (INS1): 3.9 µM (active)

SMILES: Nn1c(C2COc3ccccc3O2)n[nH]c1=S (centres undefined)
- IC50 [2]: > 100 µM (inactive)
- IC50 [3]: 5.09 µM (active)

SMILES: COc1ccc(/C=N/n2c(S)nnc2-c2[nH]nc3c2CCC3)c(OC)c1OC
- IC50 [2]: > 100 µM (inactive)
- IC50 [3]: 4.64 µM (active)
- IC50 [7]: 69.9 µM (active)

SMILES: Cn1c(=O)c2ccccc2n2c(S)nnc12
- IC50 [2]: > 100 µM (inactive)
- IC50 [3]: 3.8 µM (active)
- IC50 [7]: 19.9 µM (active)

SMILES: Oc1c(C2=CC(C(F)(F)F)=NCCN2)ccc2ccccc12
- EC50 [8]: 0.364 µM (active)
- EC50 [9]: < 0.1 µM (inconclusive)
- EC50 (H4): < 0.1 µM (active)
- EC50 [10]: 0.345 µM (active)
- EC50 [11]: 0.337 µM (active)

SMILES: COc1ccc(C(=O)C[n+]2ccc3c(c2)nc(-c2ccc(OC)cc2OC)n3C)cc1
- EC50 [5]: 31.2 µM (active)
- EC50 [6]: 22 µM (active)

SMILES: NC(=O)c1sc2nc3c(c(-c4cccs4)c2c1N)CCCC3
- EC50 [12]: < 0.1 µM (active)
- EC50 [13]: 0.125 µM (active)
- EC50 [14]: 16.1 µM (active)
- EC50 [5]: 36.5 µM (active)
- EC50 [6]: 118 µM (active)

SMILES: Cc1cc(C)cc(NC(=O)/C(C#N)=C/c2cn(CC(=O)NCc3ccco3)c3ccccc23)c1
- EC50 [5]: 8.2 µM (active)
- EC50 [6]: 10.6 µM (active)
- AC50 (INS1): 3.92 µM (active)

SMILES: CC(=O)NC1=C(N2CC2C)C(=O)C(NC(C)=O)=C(N2CC2C)C1=O (centres undefined)
- AC50 [15]: 10.2 µM (active)

SMILES: O=C(NC(=S)Nc1nc2c(s1)CCCC2)c1ccccc1
- EC50 [8]: 0.313 µM (active)
- EC50 [9]: 0.143 µM (active)
- EC50 (H4): < 0.1 µM (active)
- EC50 [10]: 0.341 µM (active)
- EC50 [11]: 0.32 µM (active)

SMILES: O=C(Nc1cccc(F)c1)N1CCCCN2[C@@H](CO)[C@@H](c3ccc(C#Cc4ccccc4)cc3)[C@@H]2C1
- AC50 (Paired box protein Pax-8): 10.1 µM (active)
- AC50 [16]: 5.97 µM (active)
- AC50 [17]: 13.4 µM (active)
- AC50 [18]: 21.4 µM (active)

SMILES: COC(=O)C1C(=O)c2c([nH]c(C(=O)OCCSC)c2C)CC1C (centres undefined)
- EC50 [8]: 1.34 µM (active)
- EC50 [19]: < 0.1 µM (active)
- EC50 [9]: 21.5 µM (active)
- EC50 (H4): 31.9 µM (active)
- EC50 [10]: 0.963 µM (active)
- EC50 [11]: > 12 µM (not active)

SMILES: CCC(C)NCCCOc1cc(Cl)ccc1Cl (centres undefined)
- AC50 [15]: > 20 µM (inactive)

SMILES: COC(=O)c1ccccc1NC(=S)NC(NC(=O)c1ccco1)C(Cl)(Cl)Cl (centres undefined)
- IC50 [1]: 8.08 µM (active)
